In article doi:10.1101/382226v2 (biorxiv, 2019):

Legend:
NOX1 = NOX1 (Homo sapiens, UniProt Q9Y5S8); test: luminol/HRP chemiluminescence, intact transfected HEK293 cells; type: cell-based
NOX4 = molecular target: T1, NOX4 (Homo sapiens, UniProt Q9NPH5); test: Amplex Red/HRP H2O2 fluorescence, intact transfected HEK293 cells; type: cell-based
T1 sequence (Q9NPH5 1-578): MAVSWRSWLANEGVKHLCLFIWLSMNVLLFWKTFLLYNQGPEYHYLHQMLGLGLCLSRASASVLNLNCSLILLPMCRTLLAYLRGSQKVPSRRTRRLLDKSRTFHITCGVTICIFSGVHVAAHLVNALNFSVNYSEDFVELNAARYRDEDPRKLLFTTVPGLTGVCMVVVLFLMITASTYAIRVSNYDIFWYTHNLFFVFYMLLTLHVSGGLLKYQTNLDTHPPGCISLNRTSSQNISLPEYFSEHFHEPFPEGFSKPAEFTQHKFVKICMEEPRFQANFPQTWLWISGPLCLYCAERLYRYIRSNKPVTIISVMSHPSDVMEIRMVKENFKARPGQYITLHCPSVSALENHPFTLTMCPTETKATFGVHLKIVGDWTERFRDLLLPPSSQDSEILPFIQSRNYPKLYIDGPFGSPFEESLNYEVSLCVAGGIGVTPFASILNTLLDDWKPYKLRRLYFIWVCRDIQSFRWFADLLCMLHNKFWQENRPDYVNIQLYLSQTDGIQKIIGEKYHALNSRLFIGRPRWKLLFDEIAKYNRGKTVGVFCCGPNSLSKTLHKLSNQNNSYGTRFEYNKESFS
T1 sequence (P13498 2-195 partner): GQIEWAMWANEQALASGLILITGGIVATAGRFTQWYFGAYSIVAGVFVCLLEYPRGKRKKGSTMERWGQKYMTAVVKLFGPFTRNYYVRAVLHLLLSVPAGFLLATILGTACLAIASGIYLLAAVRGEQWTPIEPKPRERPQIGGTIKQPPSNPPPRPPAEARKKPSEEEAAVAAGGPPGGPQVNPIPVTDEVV

NOX1, sequence (Q9Y5S8 whole entry, one chain of several): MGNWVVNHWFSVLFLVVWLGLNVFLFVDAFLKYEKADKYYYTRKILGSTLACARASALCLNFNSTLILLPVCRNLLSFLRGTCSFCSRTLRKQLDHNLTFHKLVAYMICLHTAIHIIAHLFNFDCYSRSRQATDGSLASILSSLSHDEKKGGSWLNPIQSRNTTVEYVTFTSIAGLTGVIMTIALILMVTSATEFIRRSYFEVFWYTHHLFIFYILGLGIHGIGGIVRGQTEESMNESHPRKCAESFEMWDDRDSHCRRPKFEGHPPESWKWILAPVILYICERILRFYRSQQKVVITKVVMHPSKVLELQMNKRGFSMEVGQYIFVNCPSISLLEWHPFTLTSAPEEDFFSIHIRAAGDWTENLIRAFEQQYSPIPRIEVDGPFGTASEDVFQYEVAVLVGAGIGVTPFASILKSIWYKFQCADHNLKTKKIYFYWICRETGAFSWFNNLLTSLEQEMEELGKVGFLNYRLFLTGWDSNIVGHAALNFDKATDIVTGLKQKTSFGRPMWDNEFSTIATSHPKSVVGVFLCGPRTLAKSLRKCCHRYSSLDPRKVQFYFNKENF
NOX1, sequence (Q8NFA2 whole entry partner, one chain of several): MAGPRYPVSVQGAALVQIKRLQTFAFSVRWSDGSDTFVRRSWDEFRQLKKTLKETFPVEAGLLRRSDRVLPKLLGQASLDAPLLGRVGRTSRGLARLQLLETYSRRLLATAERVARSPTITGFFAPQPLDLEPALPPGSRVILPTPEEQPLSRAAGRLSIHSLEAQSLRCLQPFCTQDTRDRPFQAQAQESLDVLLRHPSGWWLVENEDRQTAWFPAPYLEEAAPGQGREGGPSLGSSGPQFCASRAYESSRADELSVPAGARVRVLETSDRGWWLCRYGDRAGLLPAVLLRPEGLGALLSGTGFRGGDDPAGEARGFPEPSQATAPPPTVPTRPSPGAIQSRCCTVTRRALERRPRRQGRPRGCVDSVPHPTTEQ
NOX1, sequence (Q86UR1 whole entry partner, one chain of several): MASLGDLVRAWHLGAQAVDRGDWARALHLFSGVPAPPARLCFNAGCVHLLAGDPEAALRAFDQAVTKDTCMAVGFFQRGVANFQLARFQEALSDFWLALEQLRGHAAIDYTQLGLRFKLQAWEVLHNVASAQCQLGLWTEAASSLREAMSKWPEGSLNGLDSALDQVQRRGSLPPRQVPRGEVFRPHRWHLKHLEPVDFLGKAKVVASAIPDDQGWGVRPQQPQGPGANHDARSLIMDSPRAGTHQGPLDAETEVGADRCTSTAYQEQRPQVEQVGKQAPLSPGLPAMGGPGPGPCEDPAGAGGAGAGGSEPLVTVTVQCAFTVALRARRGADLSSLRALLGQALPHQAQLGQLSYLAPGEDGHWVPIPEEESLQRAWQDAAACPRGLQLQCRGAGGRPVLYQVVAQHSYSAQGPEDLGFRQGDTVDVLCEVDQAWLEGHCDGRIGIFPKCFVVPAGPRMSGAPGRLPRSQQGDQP

- IC50 (NOX1): 25.1 nM
- IC50 (NOX4): 20.4 nM
Structure (SMILES): c1ccc2c(c1)Nc1nc3ccccc3nc1N2 [ML090, 5,12-Dihydroquinoxalino(2,3-B)quinoxaline]
